Data: US20020090380A1, “Novel formulation comprising thymol useful in the treatment of drug resistant bacterial infections” (priority 2000, published 2002)
Like-named read-outs stand apart in the source and are kept apart here.

Assays:
Assay type in all cases: cell-based
[1] = tested on: E. coli strain CA8000 (wild type); assay: microbe, parasite or virus in culture; settings: Escherichia coli
[2] = tested on: E. coli strain DH5α (gyr mutation); assay: microbe, parasite or virus in culture; settings: Escherichia coli
[3] = tested on: E. coli strain ET8000 (gyr mutation); assay: microbe, parasite or virus in culture; settings: Escherichia coli
[4] = tested on: nalidixic acid resistant mutants of Escherichia coli; assay: microbe, parasite or virus in culture; settings: for inhibition zones / zone of inhibition at 50 µg/disc: 50 μg/disc; for zone of inhibition at 100 µg/disc / zone of inhibition at 250 µg/disc / zone of inhibition at 50 µg/disc: Escherichia coli; for zone of inhibition at 100 µg/disc: 100 μg/disc; for zone of inhibition at 250 µg/disc: 250 μg/disc
[5] = tested on: lomefloxacin resistant mutants of Escherichia coli; assay: microbe, parasite or virus in culture
[6] = tested on: Mycobacterium smegmatis wild type strain MC^2; assay: microbe, parasite or virus in culture; settings: Mycolicibacterium smegmatis
[7] = tested on: lomefloxacin resistant mutants of Mycobacterium smegmatis; assay: microbe, parasite or virus in culture; settings: Mycolicibacterium smegmatis; for zone of inhibition at 100 µg/disc: 100 μg/disc
[8] = tested on: E. coli CAO3; assay: microbe, parasite or virus in culture; settings: Escherichia coli, CAO3, read-out: inhibition zones
[9] = tested on: E. coli CAO3 (revert); assay: microbe, parasite or virus in culture; settings: Escherichia coli, read-out: inhibition zones
[10] = tested on: Ethidium bromide resistant strain of Mycobacterium smegmetis; assay: microbe, parasite or virus in culture; settings: read-out: Activity of thymol (zone)
[11] = tested on: Escherchia coli strain CA8000; assay: organism not typed; settings: for zone of inhibition at 50 µg/disc: 50 μg/disc; for zone of inhibition at 100 µg/disc: 100 μg/disc
Text: Activity of the Compound of the Present Invention Thymol at Different pH in Escherchia coli Strain CA8000
The above table clearly indicate that the activity of the present compound is maximum at neutral pH (7.00).

[12] = tested on: E. coli cells; assay: microbe, parasite or virus in culture; settings: Escherichia coli
[13] = tested on: E. coli cells; assay: Disk diffusion assay, synergistic effect of thymol with Mentha hybrid oil; settings: Escherichia coli; thymol 50 μg/disc
[14] = tested on: multidrug resistant bacteria
[15] = read-out: inhibition zones, CAN 102
[16] = read-out: inhibition zones, CAN 104
[17] = read-out: inhibition zones, CAN 105
[18] = read-out: inhibition zones, CAN 106
[19] = read-out: inhibition zones, CAN 107
[20] = read-out: inhibition zones, CAN 108
[21] = read-out: inhibition zones, CAN 109
[22] = read-out: inhibition zones, CAN 110
[23] = read-out: inhibition zones, CAN 111
[24] = read-out: inhibition zones, CAN 112
[25] = read-out: inhibition zones, CAN 113
[26] = read-out: inhibition zones, CAN 114
[27] = read-out: inhibition zones, CAN 115
[28] = read-out: inhibition zones, CAN 116
[29] = read-out: inhibition zones, CAN 117
[30] = read-out: inhibition zones, CAN 118
[31] = read-out: inhibition zones, CAN 119
[32] = read-out: inhibition zones, CAN 120
[33] = read-out: inhibition zones, CAN 121
[34] = read-out: inhibition zones, CAN 122
[35] = read-out: inhibition zones, CAN 123
[36] = read-out: inhibition zones, CAN 124
[37] = read-out: inhibition zones, CAN 125
[38] = read-out: inhibition zones, CAN 126

Structure (SMILES): Cc1ccc(C(C)C)c(O)c1 [Thymol]
- zone of inhibition at 10000 µg/mL [1]: 1 mm
- zone of inhibition at 20000 µg/mL [1]: 2 mm
- zone of inhibition at 50000 µg/mL [1]: 5 mm
- zone of inhibition at 250 µg/disc ([1]; read-out: inhibition zones): 4 mm
- zone of inhibition at 50000 µg/mL [2]: 5.5 mm
- zone of inhibition at 20000 µg/mL [3]: 3 mm
- zone of inhibition at 50000 µg/mL [3]: 6 mm
- inhibition zones ([4]; CAN 101): Tr.
- inhibition zones ([4]; CAN 102): Tr.
- inhibition zones ([4]; CAN 103): Tr.
- inhibition zones ([4]; CAN 104): Tr.
- inhibition zones ([4]; CAN 105): Tr.
- inhibition zones ([4]; CAN 108): Tr.
- inhibition zones ([4]; CAN 113): Tr.
- inhibition zones ([4]; CAN 122): Tr.
- zone of inhibition at 100 µg/disc ([4]; read-out: inhibition zones, CAN 101): 1.5 mm
- zone of inhibition at 100 µg/disc [4, 15]: 2 mm
- zone of inhibition at 250 µg/disc [4, 15]: 7 mm
- zone of inhibition at 100 µg/disc ([4]; read-out: inhibition zones, CAN 103): 2 mm
- zone of inhibition at 100 µg/disc [4, 16]: 2 mm
- zone of inhibition at 250 µg/disc [4, 16]: 6 mm
- zone of inhibition at 100 µg/disc [4, 17]: 2 mm
- zone of inhibition at 250 µg/disc [4, 17]: 5 mm
- zone of inhibition at 50 µg/disc [4, 18]: 1 mm
- zone of inhibition at 100 µg/disc [4, 18]: 2 mm
- zone of inhibition at 50 µg/disc [4, 19]: 1 mm
- zone of inhibition at 100 µg/disc [4, 19]: 3 mm
- zone of inhibition at 250 µg/disc [4, 19]: 5 mm
- zone of inhibition at 100 µg/disc [4, 20]: 2 mm
- zone of inhibition at 250 µg/disc [4, 20]: 5 mm
- zone of inhibition at 50 µg/disc [4, 21]: 1 mm
- zone of inhibition at 100 µg/disc [4, 21]: 3 mm
- zone of inhibition at 250 µg/disc [4, 21]: 6 mm
- zone of inhibition at 50 µg/disc [4, 22]: 1 mm
- zone of inhibition at 100 µg/disc [4, 22]: 3 mm
- zone of inhibition at 250 µg/disc [4, 22]: 6 mm
- zone of inhibition at 50 µg/disc [4, 23]: 1 mm
- zone of inhibition at 100 µg/disc [4, 23]: 3 mm
- zone of inhibition at 250 µg/disc [4, 23]: 5 mm
- zone of inhibition at 50 µg/disc [4, 24]: 1 mm
- zone of inhibition at 100 µg/disc [4, 24]: 3 mm
- zone of inhibition at 250 µg/disc [4, 24]: 5 mm
- zone of inhibition at 100 µg/disc [4, 25]: 2 mm
- zone of inhibition at 250 µg/disc [4, 25]: 5 mm
- zone of inhibition at 50 µg/disc [4, 26]: 1 mm
- zone of inhibition at 100 µg/disc [4, 26]: 3 mm
- zone of inhibition at 250 µg/disc [4, 26]: 6 mm
- zone of inhibition at 50 µg/disc [4, 27]: 1 mm
- zone of inhibition at 100 µg/disc [4, 27]: 3 mm
- zone of inhibition at 250 µg/disc [4, 27]: 5 mm
- zone of inhibition at 50 µg/disc [4, 28]: 1 mm
- zone of inhibition at 100 µg/disc [4, 28]: 3 mm
- zone of inhibition at 250 µg/disc [4, 28]: 5 mm
- zone of inhibition at 50 µg/disc [4, 29]: 1 mm
- zone of inhibition at 100 µg/disc [4, 29]: 3 mm
- zone of inhibition at 250 µg/disc [4, 29]: 5 mm
- zone of inhibition at 50 µg/disc [4, 30]: 1 mm
- zone of inhibition at 100 µg/disc [4, 30]: 3 mm
- zone of inhibition at 250 µg/disc [4, 30]: 5 mm
- zone of inhibition at 50 µg/disc [4, 31]: 1 mm
- zone of inhibition at 100 µg/disc [4, 31]: 3 mm
- zone of inhibition at 250 µg/disc [4, 31]: 6 mm
- zone of inhibition at 50 µg/disc [4, 32]: 1 mm
- zone of inhibition at 100 µg/disc [4, 32]: 3 mm
- zone of inhibition at 250 µg/disc [4, 32]: 6 mm
- zone of inhibition at 50 µg/disc [4, 33]: 1 mm
- zone of inhibition at 100 µg/disc [4, 33]: 3 mm
- zone of inhibition at 250 µg/disc [4, 33]: 5 mm
- zone of inhibition at 100 µg/disc [4, 34]: 2 mm
- zone of inhibition at 250 µg/disc [4, 34]: 5 mm
- zone of inhibition at 50 µg/disc [4, 35]: 1 mm
- zone of inhibition at 100 µg/disc [4, 35]: 3 mm
- zone of inhibition at 250 µg/disc [4, 35]: 5 mm
- zone of inhibition at 50 µg/disc [4, 36]: 1 mm
- zone of inhibition at 100 µg/disc [4, 36]: 3 mm
- zone of inhibition at 250 µg/disc [4, 36]: 5 mm
- zone of inhibition at 50 µg/disc [4, 37]: 1 mm
- zone of inhibition at 100 µg/disc [4, 37]: 3 mm
- zone of inhibition at 250 µg/disc [4, 37]: 5 mm
- zone of inhibition at 50 µg/disc [4, 38]: 1 mm
- zone of inhibition at 100 µg/disc [4, 38]: 2 mm
- zone of inhibition at 250 µg/disc [4, 38]: 5 mm
- zone of inhibition at 50 µg/disc ([5]; read-out: inhibition zones, CAL 101, 50 μg/disc): 2 mm
- zone of inhibition at 100 µg/disc ([5]; read-out: inhibition zones, CAL 101, 100 μg/disc): 4 mm
- zone of inhibition at 100 µg/disc ([5]; read-out: inhibition zones, CAL 102, 100 μg/disc): 5 mm
- zone of inhibition at 50 µg/disc ([5]; read-out: inhibition zones, CAL 103, 50 μg/disc): 2 mm
- zone of inhibition at 100 µg/disc ([5]; read-out: inhibition zones, CAL 103, 100 μg/disc): 3 mm
- zone of inhibition at 50 µg/disc ([5]; read-out: inhibition zones, CAL 104, 50 μg/disc): 1 mm
- zone of inhibition at 100 µg/disc ([5]; read-out: inhibition zones, CAL 104, 100 μg/disc): 1.5 mm
- zone of inhibition at 50 µg/disc ([5]; read-out: inhibition zones, CAL 105, 50 μg/disc): 2 mm
- zone of inhibition at 100 µg/disc ([5]; read-out: inhibition zones, CAL 105, 100 μg/disc): 4 mm
- zone of inhibition at 50 µg/disc ([5]; read-out: inhibition zones, CAL 106, 50 μg/disc): 2 mm
- zone of inhibition at 100 µg/disc ([5]; read-out: inhibition zones, CAL 106, 100 μg/disc): 4 mm
- zone of inhibition at 50 µg/disc ([5]; read-out: inhibition zones, CAL 107, 50 μg/disc): 2 mm
- zone of inhibition at 100 µg/disc ([5]; read-out: inhibition zones, CAL 107, 100 μg/disc): 4 mm
- zone of inhibition at 100 µg/disc ([5]; read-out: inhibition zones, CAL 108, 100 μg/disc): 5 mm
- zone of inhibition at 100 µg/disc ([6]; read-out: Activity of thymol (zone)): 8 mm
- zone of inhibition at 50 µg/disc ([6]; read-out: inhibition zones): 1 mm
- zone of inhibition at 100 µg/disc ([6]; read-out: inhibition zones): 2 mm
- zone of inhibition at 250 µg/disc ([6]; read-out: inhibition zones): 4 mm
- zone of inhibition at 150000 µg/mL ([6]; read-out: inhibition zones): 3 mm
- zone of inhibition at 100 µg/disc ([7]; read-out: inhibition zones, MSL 101): 1 mm
- zone of inhibition at 100 µg/disc ([7]; read-out: inhibition zones, MSL 102): 1 mm
- zone of inhibition at 100 µg/disc ([7]; read-out: inhibition zones, MSL 103): 1 mm
- zone of inhibition at 100 µg/disc ([7]; read-out: inhibition zones, MSL 104): 1 mm
- zone of inhibition at 100 µg/disc ([7]; read-out: inhibition zones, MSL 105): 1 mm
- zone of inhibition at 100 µg/disc ([7]; read-out: inhibition zones, MSL 106): < 0.5 mm
- zone of inhibition at 100 µg/disc ([7]; read-out: inhibition zones, MSL 107): 1 mm
- zone of inhibition at 100 µg/disc ([7]; read-out: inhibition zones, MSL 108): 1 mm
- zone of inhibition at 100 µg/disc ([7]; read-out: inhibition zones, MSL 109): 1 mm
- zone of inhibition at 150000 µg/mL ([7]; read-out: inhibition zones, MSL 109, 150 mg/ml): 2.5 mm
- zone of inhibition at 100 µg/disc ([7]; read-out: inhibition zones, MSL 110): 1 mm
- zone of inhibition at 100 µg/disc ([7]; read-out: inhibition zones, MSL 111): 1 mm
- zone of inhibition at 100 µg/disc ([7]; read-out: inhibition zones, MSL 112): 1 mm
- zone of inhibition at 100 µg/disc [8]: 2 mm
- zone of inhibition at 100 µg/disc [9]: 8 mm
- zone of inhibition at 100 µg/disc [10]: 11 mm
- inhibition zone ([11]; 25 μg/disc, pH 4.00): trace
- zone of inhibition at 25 µg/disc ([11]; 25 μg/disc, pH 7.00): 1 mm
- zone of inhibition at 50 µg/disc ([11]; 1M NaOH): 1 mm
- zone of inhibition at 50 µg/disc ([11]; pH 4.00): 2 mm
- zone of inhibition at 50 µg/disc ([11]; pH 7.00): 2 mm
- zone of inhibition at 50 µg/disc ([11]; pH 9.00): 1 mm
- zone of inhibition at 100 µg/disc ([11]; 1M NaOH): 2 mm
- zone of inhibition at 100 µg/disc ([11]; pH 4.00): 4 mm
- zone of inhibition at 100 µg/disc ([11]; pH 7.00): 6 mm
- zone of inhibition at 100 µg/disc ([11]; pH 9.00): 3 mm
- zone of inhibition at 12.5 µg/disc ([12]; thymol 12.5 μg/disc): < 0.5 mm
- zone of inhibition at 25 µg/disc ([12]; thymol 25.0 μg/disc): 2 mm
- zone of inhibition at 50 µg/disc ([12]; thymol 50.0 μg/disc): 3 mm
- zone of inhibition at 75 µg/disc ([12]; thymol 75.0 μg/disc): 5 mm
- zone of inhibition at 100 µg/disc ([12]; thymol 100.0 μg/disc): 6 mm
- zone of inhibition at 50 µg/disc [13]: 3 mm
- increase of the antibacterial activity of thymol [14]: 45%
